The text below walks through data of PubChem BioAssay (NCI).

Each structure is given as a SMILES string.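 Where inhibition never reached the appropriate level, the endpoint shown equals the highest concentration tested. Otherwise, values were interpolated linearly from a five-concentration, 48-hour dose response in 96-well plates. GI50 = concentration required for 50% inhibition of growth. Definition used: TGI = concentration required for complete inhibition of growth.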

Assay in all cases: NCI-60 cell line screen, 48 h
For test [1], the system named is SK-MEL-2 melanoma.
In test [2] the test system is NCI-H522 lung.
Test [3] deals with IGROV1 ovarian.
Test [4] has as its system OVCAR-4 ovarian.
The test system of test [5] is UACC-62 melanoma.
Test [6] relates to M14 melanoma.
The subject of test [7] is SNB-19 CNS.
Test [8] has as its system KM12 colon.
The subject of test [9] is HOP-62 NSCLC.
For test [10], the system named is K-562 leukemia.

Take `CC1=Nc2ccccc2OC(C)=C1N=Nc1ccc2nc(C)[nH]c2c1`: the TGI in test [1], in test [2], in test [3], in test [4], in test [5] and in [6] was greater than 100 µM each time. Moreover, the TGI in test [7], in [8], in [9] and in test [10] was greater than 100 µM in each case.
Regarding `O=C(/C=C/c1ccc2c(c1)OCO2)c1ccc(O)cc1`, the TGI came out at 32.7 µM in test [1]; 6.72 µM in test [2]; 30.2 µM in test [3]; 38.8 µM in test [4]; 33 µM in test [5]; 32.2 µM in test [6]. In addition, the figures for the TGI in [7], in test [9] and in [10] were 30.5 µM, 66.1 µM and 27.1 µM, respectively.
With `Nn1c(Nc2ccc(S(=O)(=O)Nc3ncccn3)cc2)nnc(/C=C/c2c(O)ccc3ccccc23)c1=O`, the TGI is 51.1 µM in test [1]; 69.6 µM in test [2]; greater than 100 µM in test [3]; greater than 100 µM in [4]; 52.6 µM in test [5]; 78.2 µM in test [6]. The TGI in test [7], in [9] and in test [10] was greater than 100 µM throughout.
With `COc1ccc(CN2C(=O)/C(=C\c3cc(OC)c(OC)c(OC)c3)c3ccccc32)cc1`, the GI50 was 1.87 µM in [1]; 1.58 µM in test [2]; 1.72 µM in test [3]; 3.25 µM in test [4]; 1.6 µM in [5]; 2.41 µM in test [6]. Further, the GI50 in [7] is 1.81 µM; in [8], 1.89 µM; in test [9], 2.42 µM. Besides, the TGI is 4.11 µM in test [1]; 3.57 µM in test [2]; 4.64 µM in test [3]; greater than 100 µM in [4]; 3.51 µM in [5]; 5.48 µM in test [6]. Moreover, the TGI in [7] worked out at 3.56 µM; in [8], 3.57 µM; in test [9], 4.98 µM.
For `NS(=O)(=O)c1nnc(NC(=O)Nc2ccc(Cl)c(Cl)c2)s1`, the TGI was 74.2 µM in test [1]; 30.1 µM in [2]; greater than 100 µM in test [4]; 31.2 µM in test [5]; 32.3 µM in test [6]; 55.8 µM in [7]. Further, the TGI in test [8] was 92 µM; in test [9], 39.7 µM; in test [10] it was greater than 100 µM.
With `COc1ccc(-c2[nH]c3c4c(nc5c(c24)C(=O)CC(C)(C)C5)CC(C)(C)C3)cc1`, the TGI in test [1], in test [2], in [4], in test [5], in test [6] and in test [7] was greater than 100 µM in each case. For the same molecule, the TGI in [8], in test [9] and in [10] was greater than 100 µM each time.
In the case of `CCC(=O)NC(Nc1cc(C)on1)(C(F)(F)F)C(F)(F)F`, the TGI in test [1], in test [2], in [3], in test [5], in test [6] and in test [7] was greater than 100 µM in each case. For the same molecule, the TGI in [8], in test [9] and in test [10] was greater than 100 µM each time.
As to `Nc1nc(-c2ccccc2)nc2oc(-c3cccs3)nc12`, the TGI in test [1], in test [2], in test [3], in test [5], in test [6] and in test [7] was greater than 100 µM in each case. Besides, the TGI in test [8], in test [9] and in test [10] was greater than 100 µM in each case.
As for `O=C(Cc1ccc(O)c(O)c1)NCc1c[nH]c2ccccc12`, the TGI in [1], in test [2], in test [4], in [6], in test [7] and in test [8] was greater than 100 µM each time. In addition, the TGI in test [9] and in test [10] was greater than 100 µM in each case.
On to `O=C1c2cc3c(cc2-c2c1c1ccc(F)cc1c(=O)n2C[C@H](O)[C@@H](O)[C@H](O)CO)OCO3`, for which the GI50 in test [1] was 0.18 µM; in [2] it was 0.0167 µM; in test [3] it was 0.302 µM; in test [4], 0.185 µM; in test [5], 0.025 µM; in test [6] it was 0.0443 µM. Further, the GI50 in test [7] is 0.0513 µM; in test [9], 0.0324 µM; in test [10], 0.0645 µM. The TGI is 0.375 µM in [1]; 0.137 µM in [2]; greater than 100 µM in [3]; 0.874 µM in test [4]; 0.123 µM in [5]; 0.599 µM in test [6]. Moreover, the TGI in [7] is 3.01 µM; in test [9], 0.27 µM; in test [10] it was greater than 100 µM.
For the molecule `Cc1cc(Nc2ccc(S(=O)(=O)O)c3cc(S(=O)(=O)O)cc(S(=O)(=O)O)c23)c2ccccc2n1`, the TGI in test [1], in test [2], in [3], in test [4], in test [5] and in test [6] was greater than 100 µM in each case. Further, the TGI in test [7], in [8] and in test [9] was greater than 100 µM throughout.
On to `Cc1oc2c(cc(O)c3cc(O)ccc32)c2cccc1-2`, for which the TGI in [1], in test [2], in [3], in test [5], in [6] and in test [7] was greater than 100 µM in each case. The TGI in [8], in [9] and in test [10] was greater than 100 µM in each case.
Regarding `C#CCn1c(=O)c2ccccc2n(CC#C)c1=O`, the TGI in test [1], in [2], in [3], in test [4], in test [6] and in test [7] was greater than 10 µM each time. Besides, the TGI in [8], in test [9] and in test [10] was greater than 10 µM throughout.
